# Like-named read-outs stand apart in the source and are kept apart here.
# Columns and labels:
# [1] = Rodent Pharmacokinetics Studies; assay type: in vivo, rat; settings: for bioavailability / half-life: rat, plasma; for bioavailability: read-out: Bioavail, F (%)
# Protocol: Absorption and metabolic stability were studied using an in vivo pharmacokinetics assay.
# […] […] For compound HMC-C-01-A the oral administration was formulated in 2% dimethylacetamide/20% hydroxypropyl-β-cyclodextrin in water. Animals were given free access to food throughout the study except for fasting overnight and until 2 hours post dose on the day of dosing.
# Blood samples were taken from the retro-orbital plexus at the following time points and placed in microtubes containing 20% K2EDTA solution: […]
# Blood samples were centrifuged to obtain plasma, which was transferred to a separate container and frozen at −20° C.
# For analysis, samples were thawed at room temperature and prepared by protein precipitation with acetonitrile spiked with internal standard (500 ng/mL glipizide) in the ratio 1:4 with plasma. The samples were then vortexed for 5 minutes and centrifuged for 10 minutes at 20,600×g at 4° C. 100 μL of the supernatant was collected for analysis.
# The pharmacokinetic parameters for the test compounds were calculated by Phoenix WinNonlin version 6.3 (Pharsight Corp, CA) using standard non-compartmental methods. Peak plasma concentrations (Cmax) and time of the peak plasma concentration (Tmax) were the observed values. The area under the plasma concentration-time curve (AUC) was determined by use of the linear trapezoidal rule up to the last measurable concentration (AUClast) and thereafter by extrapolation of the terminal elimination phase to infinity (AUCinf). The terminal elimination rate constant (kel) was determined by regression analysis of the linear terminal portion of the log plasma concentration-time curve. The elimination phase half-life (t1/2) was calculated as 0.693/kel.
# [2] = tested on: mice with collagen-induced arthritis; experiment: Mouse Collagen-Induced Arthritis; assay type: in vivo; settings: for % inhibition of disease: oral gavage once daily for 14 days, arthritic index vs control
# Protocol: Seven- to eight-week-old male DBA/1j mice were used for all procedures. Animals were housed in groups of 10, and were maintained at 21° C.±2° C. on a 12-hour light/dark cycle with food and water ad libitum. Complete Freund's adjuvant (CFA) was prepared by emulsifying bovine type II collagen at 4 mg/mL with a 4 mg/mL suspension of Mycobacterium tuberculosis H37Ra in Incomplete Freund's adjuvant (IFA) (0.85 mL paraffin oil and 0.15 mL mannide monooleate) in a 1:1 (v/v) ratio. All mice were immunised subcutaneously with 200 μg of bovine type II collagen in CFA. 21 days later, all mice were immunised subcutaneously with 100 μg of bovine type II collagen in IFA. The mice started to develop signs and symptoms of arthritis following the ‘booster’ immunisation.
# For macroscopic assessment of arthritis, the following signs were monitored in each paw of each mouse three times per week and summed to generate the Arthritic Index (AI) (the maximum AI for one animal is 16): • 0=no visible effects of arthritis. • 1=oedema and/or erythema of 1 digit. • 2=oedema and/or erythema of 2 digits. • 3=oedema and/or erythema of more than 2 digits. • 4=severe arthritis of entire paw and digits.
# Animals were sorted into treatment groups with a mean arthritic index of 2.5 and then dosed once daily for 14 days with compound by oral gavage for test compounds, or by subcutaneous injection at a dose of 10 mg/kg for the positive control, etanercept. After completion of the experiment, the mice were sacrificed.
# The data were analysed by generating an average of the arthritic index across each treatment group. The mean arthritic index was then compared to the arthritic index of control (untreated) animals using the following formula to generate a percentage inhibition of disease.
# [3] = tested on: DoHH2 B-cell lymphoma cells; experiment: DoHH2 B Cell Lymphoma Proliferation Assay; assay type: cell-based; settings: Homo sapiens, DOHH-2; 72 hour incubation, flow cytometry with counting beads and eFluor 450
# Protocol: In vitro potency of test compounds was determined by incubation with DoHH2 B-cell lymphoma cells and subsequent determination of cell number using flow cytometry.
# Flow cytometry is a laser-based, biophysical technology employed in cell counting, cell sorting, and biomarker detection, by suspending cells in a stream of fluid and passing them by an electronic detection apparatus. It allows simultaneous multi-parametric analysis of the physical and chemical characteristics of up to thousands of particles per second. To quantify cell numbers, counting beads are used as an internal standard. Counting beads are a calibrated suspension of microbeads which are added to a known volume of sample so the sample volume per bead is known. This allows the absolute determination of cell number in a sample. Cell proliferation is measured using a dye known as Cell Proliferation Dye (eFluor® 450). eFluor® 450 is an organic dye which can be conjugated to cell-specific markers. […]
# The average results for each test compound were expressed as a percent (%) of the average control value reflecting cell viability. The average values across the concentrations tested were then plotted and an IC50 was calculated by fitting the data to a 4-parameter IC50 equation using KaleidaGraph software (Synergy Software, Reading, Pa. USA).
# [4] = male Han Wistar rats, 1 mg/kg intravenous, 5% DMSO/10% solutol in saline
# [5] = male Han Wistar rats, 5 mg/kg orally, 0.5% CMC/0.1% Tween-80
# [6] = 5 mg/kg, male Han Wistar rats, oral in 0.5% CMC/0.1% Tween-80, i.v. in 5% DMSO/10% solutol in saline
smiles,measurement,setting,value
"Cc1cc(S(=O)(=O)N[C@H]2CC[C@H](O)CC2)ccc1-c1ccc(F)cc1F [ABD735, reference compound]",i.v. AUC,[1]; [4],1081 ng/mL/min
same,p.o. AUC (ng/mL/min),[1]; [5],8965 ^(4) ng/mL/min
same,bioavailability,[1]; [6],83%
same,% inhibition of disease,[2]; 10 mg/kg/day,44%
"C[C@]1(O)CC[C@@H](NS(=O)(=O)c2ccc(-c3ccc(F)cc3F)cc2)CC1 [ABD899, reference compound]",i.v. AUC,[1]; [4],2133 ng/mL/min
same,p.o. AUC (ng/mL/min),[1]; [5],10740 ^(4) ng/mL/min
same,bioavailability,[1]; [6],50%
same,IC50,[3],135 nM
same,% inhibition of disease,[2]; 10 mg/kg/day,77%
"C[C@]1(O)CC[C@@H](NS(=O)(=O)c2ccc(-c3ccc(C#N)cc3)c(F)c2)CC1 [HMC-C-07-B, 4′-Cyano-2-fluoro-N-((1s,4s)-4-hydroxy-4-methylcyclohexyl)-[1,1′-biphenyl]-4-sulfonamide]",bioavailability,"[1]; male, Han Wistar, iv, 5 mg/kg, rats, footnote (3): i.v. samples at 0.03, 0.1, 0.167, 0.25, 0.5, 1, 2, 4, 6, 8, 24 hours",86%
same,half-life,"[1]; male, Han Wistar, rats, footnotes (1)(2): 5% DMSO/10% solutol in saline for both routes",9.7 h
same,half-life,"[1]; male, Han Wistar, rats, study of footnote (3)",9 h
same,bioavailability,"[1]; male, Han Wistar, rats, footnotes (1)(2): 5% DMSO/10% solutol in saline for both routes, sampling incl. 23 and 24 hours, oral 10 mg/kg",100%
same,i.v. AUC,"[1]; rats, 1 mg/kg i.v., footnote (3): i.v. samples at 0.03, 0.1, 0.167, 0.25, 0.5, 1, 2, 4, 6, 8, 24 hours",11627 ng/mL/min
same,p.o. AUC,"[1]; rats, 5 mg/kg orally, study of footnote (3)",39463 ng/mL/min
same,p.o. AUC (ng/mL/min),"[1]; rats, footnotes (1)(2)(5): dosed at 10 mg/kg orally in 5% DMSO/10% solutol in saline",146299 ^(5) ng/mL/min
same,i.v. AUC,"[1]; rats, footnotes (1)(2): 1 mg/kg i.v. in 5% DMSO/10% solutol in saline, sampling incl. 23 and 24 hours",24072 ng/mL/min
same,IC50,[3],186 nM
same,% inhibition of disease,[2]; 0.3 mg/kg/day,16%
same,% inhibition of disease,[2]; 3 mg/kg/day,56%
same,signs and symptoms of disease (in words),"[2]; compared with Etanercept (10 mg/kg s.c.), FIG. 1 and 2","able to reduce signs and symptoms of disease in mice with collagen-induced arthritis to a similar extent as the clinically utilised treatment, Etanercept"
"C[C@]1(O)CC[C@H](NS(=O)(=O)c2ccc(-c3ncc(Cl)cc3C#N)cc2)CC1 [HMC-N-05-A, 4-(5-Chloro-3-cyanopyridin-2-yl)-N-((1r,4r)-4-hydroxy-4-methylcyclohexyl)benzenesulfonamide]",bioavailability,"[1]; male, Han Wistar, 5 mg/kg, rats, footnote (1): 5% DMSO/10% solutol in saline for both oral and intravenous routes",88%
same,half-life,"[1]; male, Han Wistar, rats, footnote (1): 5% DMSO/10% solutol in saline for both routes",0.8 h
same,i.v. AUC,"[1]; rats, 1 mg/kg i.v., footnote (1): 5% DMSO/10% solutol in saline",891 ng/mL/min
same,p.o. AUC,"[1]; rats, 5 mg/kg orally, footnote (1): 5% DMSO/10% solutol in saline",3937 ng/mL/min
